Earlier results on three compounds are cited in patent US20250345512A1, “COMBINATION SODIUM-GLUCOSE COTRANSPORTER INHIBITOR (SGLTI) INSULIN THERAPY FOR GLYCEMIC CONTROL IN TYPE 1 DIABETES” (University of Virginia Patent Foundation, priority 2022, published 2025).

One data set deals with T1D adults. The conditions noted are these: pooled analysis of 1575 T1D adults; cited from earlier work.
The test system of data set [1] is T1D patients. Particulars: 200 mg and 400 mg; adults with T1D; cited from earlier work.
The next data set deals with T1D. Particulars: versus placebo over 18 weeks; cited from earlier work.
Data set [2] has as its system T1D patients. More on the design: adverse effects, including DKA: reference not given here. The conditions noted are these: cited from earlier work.
The conditions of data set [3]: 25 mg/day added to experimental AID; 9-14 h outpatient; cited from earlier work.

The structures appear in SMILES notation.

Turning to `CCOc1ccc(Cc2cc([C@@H]3O[C@H](SC)[C@@H](O)[C@H](O)[C@H]3O)ccc2Cl)cc1` [sotagliflozin], the “short- and long-term renal hemodynamic changes” value in the data set with T1D adults is given as “reductions in urine albumin:creatinine”. In addition, the “glycemic control and weight” value with T1D patients [1] was “improved glycemic control and weight”.
As to `Cc1ccc([C@@H]2O[C@H](CO)[C@@H](O)[C@H](O)[C@H]2O)cc1Cc1ccc(-c2ccc(F)cc2)s1` [canagliflozin], the “indices of glycemic variability and treatment satisfaction” value in the data set with T1D was “improved indices of glycemic variability and improvement in treatment satisfaction”.
Take `OC[C@H]1O[C@@H](c2ccc(Cl)c(Cc3ccc(O[C@H]4CCOC4)cc3)c2)[C@H](O)[C@@H](O)[C@@H]1O` [empagliflozin]: the adverse effects entry in the data set with T1D patients [2] (2.5 mg) is “indistinguishable from placebo”. For the same compound, the “adverse effects, including DKA” value with T1D patients [2] (10 mg and 25 mg daily dose) was “two to three fold higher”. In the data set with T1D patients [2] (1707 T1D patients, 26 weeks of SGLT2i treatment), the “body weight, systolic blood pressure, and diastolic blood pressure” value is given as “significant reductions”. Also, in the data set on T1D patients [2] (EASE trials), the “hemoglobin A1c and hypoglycemia” value is reported as “improvements in hemoglobin Ale without increase in hypoglycemia”. Further, in data set [3], the “need for pre-meal carbohydrate counting” value is given as “reduce the need for pre-meal carbohydrate counting”.
